Experimental data taken from patent US9290451B2 (Hoffmann-La Roche Inc., priority 2011, dated 2016).

Key:
human CB2 receptors = human CB2 receptors (Homo sapiens (Human), UniProt P34972); assay: cAMP assay, CHO cells expressing human CB2 receptors; assay type: cell-based; settings: CHO cells expressing human CB2, cAMP; read-out: human CB2 EC50
Procedure, shortened: (§1)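 Whole CHO cells were preincubated in Krebs Ringer bicarbonate buffer with 1 mM IBMX for 30 min at 30 °C, then exposed to compounds for 30 min at 30 °C. cAMP was quantified by time-resolved FRET (cAMP-Nano-TRF) against a standard curve, and EC50 values were derived.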

human CB1 receptors = human CB1 receptors (Homo sapiens (Human), UniProt P21554); assay: cAMP assay, CHO cells expressing human CB1 receptors; assay type: cell-based; settings: CHO cells expressing human CB1, cAMP; read-out: human CB1 EC50
Procedure, shortened: as §1

Chain of human CB2 receptors (P34972 whole entry): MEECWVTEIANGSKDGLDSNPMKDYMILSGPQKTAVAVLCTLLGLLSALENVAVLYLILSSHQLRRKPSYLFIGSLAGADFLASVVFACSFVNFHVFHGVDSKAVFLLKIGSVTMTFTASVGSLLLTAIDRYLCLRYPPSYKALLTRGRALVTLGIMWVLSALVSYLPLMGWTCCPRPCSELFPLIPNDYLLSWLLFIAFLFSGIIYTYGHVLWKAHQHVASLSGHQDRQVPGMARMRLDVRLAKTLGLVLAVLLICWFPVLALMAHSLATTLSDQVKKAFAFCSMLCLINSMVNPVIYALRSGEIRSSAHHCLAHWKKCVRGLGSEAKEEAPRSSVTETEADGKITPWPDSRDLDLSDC
Chain of human CB1 receptors (P21554 whole entry): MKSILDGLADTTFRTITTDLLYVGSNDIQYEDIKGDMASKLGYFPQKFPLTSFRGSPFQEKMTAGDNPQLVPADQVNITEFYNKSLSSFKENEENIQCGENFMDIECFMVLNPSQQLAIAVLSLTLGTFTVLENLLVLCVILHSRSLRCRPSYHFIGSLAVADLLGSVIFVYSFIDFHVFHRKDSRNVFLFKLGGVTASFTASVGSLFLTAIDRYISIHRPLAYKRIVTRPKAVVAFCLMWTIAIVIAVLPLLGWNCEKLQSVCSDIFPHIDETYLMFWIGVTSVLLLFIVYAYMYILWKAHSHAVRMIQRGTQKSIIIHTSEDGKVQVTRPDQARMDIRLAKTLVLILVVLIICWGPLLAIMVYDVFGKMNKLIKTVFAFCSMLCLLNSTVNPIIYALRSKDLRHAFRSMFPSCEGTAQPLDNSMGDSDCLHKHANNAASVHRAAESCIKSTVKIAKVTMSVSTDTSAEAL

`NC(=O)[C@H](CC1CC1)NC(=O)c1ccc(Br)c(OCC2CC2)n1` [Example 110, 5-Bromo-6-cyclopropylmethoxy-pyridine-2-carboxylic acid ((S)-1-carbamoyl-2-cyclopropyl-ethyl)-amide] was tested. Which EC50 (human CB2 receptors) did it give?
Its EC50 is 224 nM.

And the EC50 (human CB1 receptors)?
The EC50 was > 10000 nM.

Which results are given for `Cc1nc(C(C)(C)NC(=O)c2ccc(C3CCCC3)c(-c3cccc(Cl)c3)n2)no1` [Example 106, 6-(3-Chloro-phenyl)-5-cyclopentyl-pyridine-2-carboxylic acid [1-methyl-1-(5-methyl-[1,2,4]oxadiazol-3-yl)-ethyl]-amide]?
EC50 (human CB2 receptors): 215 nM; EC50 (human CB1 receptors): > 10000 nM

Which EC50 (human CB2 receptors) does the source give for `O=C(c1ccc(N2CCC(F)(F)C2)c(OCC2CC2)n1)N1CCS(=O)(=O)CC1` [Example 79] here?
Its EC50 is 2040 nM.

What about the EC50 (human CB1 receptors) of the same molecule?
The EC50 was > 10000 nM.

What does the source list for `CNC(=O)[C@H](CC(C)(C)C)NC(=O)c1ccc(N2CC(F)(F)C2)c(OCC2CC2)n1` [Example 209, (S)-6-(Cyclopropylmethoxy)-5-(3,3-difluoroazetidin-1-yl)-N-(4,4-dimethyl-1-(methylamino)-1-oxopentan-2-yl)picolinamide]?
EC50 (human CB2 receptors): 2.5 nM; EC50 (human CB1 receptors): > 10000 nM

How did the EC50 (human CB2 receptors) turn out when `CCC(CC)(NC(=O)c1ccc(C)c(-c2cccc(Cl)c2)n1)C(=O)NC` [Example 70, 6-(3-Chloro-phenyl)-5-methyl-pyridine-2-carboxylic acid (1-ethyl-1-methylcarbamoyl-propyl)-amide] was run?
The EC50 was 57.4 nM.

And the EC50 (human CB1 receptors)?
The EC50 was > 10000 nM.

How did the EC50 (human CB2 receptors) turn out when `CC(C)(NC(=O)c1ccc(C2CC2)c(OCC(F)(F)F)n1)c1nccs1` [Example 305, 5-Cyclopropyl-6-(2,2,2-trifluoro-ethoxy)-pyridine-2-carboxylic acid (1-methyl-1-thiazol-2-yl-ethyl)-amide] was run?
The EC50 was 50.3 nM.

What about the EC50 (human CB1 receptors) of the same molecule?
The EC50 was > 10000 nM.

`CC(C)(NC(=O)c1ccc(Cl)c(-c2cccc(Cl)c2)n1)c1ncon1` [Example 88, 5-Chloro-6-(3-chloro-phenyl)-pyridine-2-carboxylic acid (1-methyl-1-[1,2,4]oxadiazol-3-yl-ethyl)-amide] was tested. Which EC50 (human CB2 receptors) did it give?
Its EC50 is 356 nM.

And the EC50 (human CB1 receptors)?
The EC50 was > 10000 nM.

For `CC(C)CS(=O)(=O)c1nc(C(=O)N[C@@H](c2cccnc2)C(F)(F)F)ccc1C1CC1` [Example 365, 5-Cyclopropyl-6-(2-methyl-propane-1-sulfonyl)-pyridine-2-carboxylic acid ((S)-2,2,2-trifluoro-1-pyridin-3-yl-ethyl)-amide], which EC50 (human CB2 receptors) is on record?
Its EC50 is 13.9 nM.

What about the EC50 (human CB1 receptors) of the same molecule?
Its EC50 is > 10000 nM.

For `CCC(CC)(NC(=O)c1ccc(N2CC(F)(F)C2)c(OCC2CC2)n1)C(=O)NC` [Example 86, 6-Cyclopropylmethoxy-5-(3,3-difluoro-azetidin-1-yl)-pyridine-2-carboxylic acid (1-ethyl-1-methylcarbamoyl-propyl)-amide], which EC50 (human CB2 receptors) is on record?
The EC50 was 33.1 nM.

What about the EC50 (human CB1 receptors) of the same molecule?
Its EC50 is > 10000 nM.

What does the source list for `CC(C)(NC(=O)c1ccc(N2CC(F)(F)C2)c(OCC2CC2)n1)c1nccs1` [Example 69, 6-Cyclopropylmethoxy-5-(3,3-difluoro-azetidin-1-yl)-pyridine-2-carboxylic acid (1-methyl-1-thiazol-2-yl-ethyl)-amide]?
EC50 (human CB2 receptors): 6 nM; EC50 (human CB1 receptors): 380 nM

With `O=C(N[C@@H](c1ccccn1)C(F)(F)F)c1ccc(C2CC2)c(Cc2ccc(F)cc2)n1` [Example 332, 5-Cyclopropyl-6-(4-fluoro-benzyl)-pyridine-2-carboxylic acid ((S)-2,2,2-trifluoro-1-pyridin-2-yl-ethyl)-amide] as the molecule, how does the EC50 (human CB2 receptors) read?
The EC50 was 4.5 nM.

And the EC50 (human CB1 receptors)?
The EC50 was 91 nM.

With `CC(C)C[C@H](NC(=O)c1ccc(N2CC(F)(F)C2)c(OCC2CC2)n1)c1cccnn1` [Example 355, 6-Cyclopropylmethoxy-5-(3,3-difluoro-azetidin-1-yl)-pyridine-2-carboxylic acid ((S)-3-methyl-1-pyridazin-3-yl-butyl)-amide] as the molecule, how does the EC50 (human CB2 receptors) read?
Its EC50 is 80.1 nM.

What about the EC50 (human CB1 receptors) of the same molecule?
The EC50 was > 10000 nM.

How did the EC50 (human CB2 receptors) turn out when `CCC(CC)(NC(=O)c1ccc(C2CC2)c(OCC[C@H](O)C(F)(F)F)n1)C(=O)NC` [Example 320, 5-Cyclopropyl-6-((S)-4,4,4-trifluoro-3-hydroxy-butoxy)-pyridine-2-carboxylic acid (1-ethyl-1-methylcarbamoyl-propyl)-amide] was run?
Its EC50 is 4.4 nM.

What about the EC50 (human CB1 receptors) of the same molecule?
Its EC50 is 323 nM.

What does the source list for `CC(C)(NC(=O)c1ccc(C2CCCO2)c(-c2cccc(Cl)c2)n1)c1ncco1` (stereo not shown) [Example 126, 6-(3-Chloro-phenyl)-5-(tetrahydro-furan-2-yl)-pyridine-2-carboxylic acid (1-methyl-1-oxazol-2-yl-ethyl)-amide]?
EC50 (human CB2 receptors): 240 nM; EC50 (human CB1 receptors): > 10000 nM

`CCC(CC)(NC(=O)c1ccc(C2CC2)c(Cc2ccc(F)cc2)n1)C(=O)O` [Example 333, 2-{[5-Cyclopropyl-6-(4-fluoro-benzyl)-pyridine-2-carbonyl]-amino}-2-ethyl-butyric acid] was tested. Which EC50 (human CB2 receptors) did it give?
The EC50 was 8 nM.

What about the EC50 (human CB1 receptors) of the same molecule?
The EC50 was 81 nM.

How did the EC50 (human CB2 receptors) turn out when `CNC(=O)[C@H](CC(C)(C)C)NC(=O)c1cccc(Cc2ccc(F)cc2)n1` [Example 286, 6-(4-Fluoro-benzyl)-pyridine-2-carboxylic acid ((S)-3,3-dimethyl-1-methylcarbamoyl-butyl)-amide] was run?
Its EC50 is 8.2 nM.

What about the EC50 (human CB1 receptors) of the same molecule?
Its EC50 is 1870 nM.

Which results are given for `Cc1nc([C@H](CC2CC2)NC(=O)c2cccc(-c3ccc(F)c(Cl)c3)n2)no1` [Example 343, 6-(3-Chloro-4-fluoro-phenyl)-pyridine-2-carboxylic acid [(S)-2-cyclopropyl-1-(5-methyl-[1,2,4]oxadiazol-3-yl)-ethyl]-amide]?
EC50 (human CB2 receptors): 3.5 nM; EC50 (human CB1 receptors): > 10000 nM

How did the EC50 (human CB2 receptors) turn out when `Cc1nc(C(C)(C)NC(=O)c2ccc(C3CCOCC3)c(OCC3CC3)n2)no1` [Example 10, 6-Cyclopropylmethoxy-5-(tetrahydro-pyran-4-yl)-pyridine-2-carboxylic acid [1-methyl-1-(5-methyl-[1,2,4]oxadiazol-3-yl)-ethyl]-amide] was run?
Its EC50 is 88.3 nM.

What about the EC50 (human CB1 receptors) of the same molecule?
Its EC50 is > 10000 nM.

How did the EC50 (human CB2 receptors) turn out when `CNC(=O)C(C)(C)NC(=O)c1ccc(N2CC(F)(F)C2)c(OCC2CC2)n1` [Example 87, 6-Cyclopropylmethoxy-5-(3,3-difluoro-azetidin-1-yl)-pyridine-2-carboxylic acid (1-methyl-1-methylcarbamoyl-ethyl)-amide] was run?
The EC50 was 476 nM.

What about the EC50 (human CB1 receptors) of the same molecule?
The EC50 was > 10000 nM.

With `Cc1nc(C(NC(=O)c2ccc(N3CC(F)(F)C3)c(OCC3CC3)n2)C2CC2)no1` (stereo not shown) [Example 221, 6-Cyclopropylmethoxy-5-(3,3-difluoro-azetidin-1-yl)-pyridine-2-carboxylic acid [cyclopropyl-(5-methyl-[1,2,4]oxadiazol-3-yl)-methyl]-amide] as the molecule, how does the EC50 (human CB2 receptors) read?
The EC50 was 12.8 nM.

What about the EC50 (human CB1 receptors) of the same molecule?
The EC50 was 10000 nM.

How did the EC50 (human CB2 receptors) turn out when `Cc1nc([C@@](C)(CC2CC2)NC(=O)c2ccc(C3CC3)c(OCC3CC3)n2)no1` [Example 358, 5-Cyclopropyl-6-cyclopropylmethoxy-pyridine-2-carboxylic acid [(−)-2-cyclopropyl-1-methyl-1-(5-methyl-[1,2,4]oxadiazol-3-yl)-ethyl]-amide] was run?
Its EC50 is 4.9 nM.

What about the EC50 (human CB1 receptors) of the same molecule?
Its EC50 is 489 nM.

For `Cc1nc(C(NC(=O)c2ccc(N3CCC34COC4)c(OCC3CC3)n2)C2CC2)no1` (stereo not shown) [Example 236, 6-Cyclopropylmethoxy-5-(6-oxa-1-aza-spiro[3.3]hept-1-yl)-pyridine-2-carboxylic acid [cyclopropyl-(5-methyl-[1,2,4]oxadiazol-3-yl)-methyl]-amide], which EC50 (human CB2 receptors) is on record?
Its EC50 is 36.5 nM.

And the EC50 (human CB1 receptors)?
Its EC50 is > 10000 nM.

Which EC50 (human CB2 receptors) does the source give for `CNC(=O)[C@@H](NC(=O)c1cccc(-c2cccc(OC)c2)n1)C(C)(C)C` [Example 215, (S)-N-(3,3-Dimethyl-1-(methylamino)-1-oxobutan-2-yl)-6-(3-methoxyphenyl) picolinamide] here?
Its EC50 is 125 nM.

And the EC50 (human CB1 receptors)?
The EC50 was > 10000 nM.
